Here are results for 19 molecules from US8217041B2, “Indene derivatives, their preparation and use as medicaments” (Laboratories del Sr. Esteve, S.A., priority 2005, dated 2012).

Where two headings read alike, the source gives them in different places.

This experiment concerns the target T1, 5HT6 human recombinant receptor (Homo sapiens, UniProt P50406).
T1 construct: purchased Receptor Biology; host or cells: HEK-293 cell membranes
Nature of the experiment: Binding test to 5-HT6 receptors ([3H]-LSD displacement, HEK-293 cell membranes). Conditions: for inhibition at 1 µM: compound concentration 10^−6 M; for Ki: inhibition constant by non-linear regression (EBDA/LIGAND), [3H]-LSD 2.7 nM; for inhibition at 0.1 µM: read-out: % Inhibition 10^−7 M; for inhibition at 0.01 µM: read-out: % Inhibition 10^−8 M. The protocol:
Binding Test to 5-HT6 Receptors
Membranes of HEK-293 cells expressing the 5HT6 human recombinant receptor were supplied by Receptor Biology. In these membranes the receptor concentration is 2.18 pmol/mg protein and the protein concentration is 9.17 mg/ml. The experimental protocol follows the method of B. L. Roth et al. [B. L. Roth, S. C. Craigo, M. S. Choudhary, A. Uluer, F. J. Monsma, Y. Shen, H. Y. Meltzer, D. R. Sibley: Binding of Typical and Atypical Antipsychotic Agents to 5-Hydroxytryptamine-6 and Hydroxytriptamine-7 Receptors. The Journal of Pharmacology and Experimental Therapeutics, 1994, 268, 1403] with slight modifications. The commercial membrane is diluted (dilution 1:40) with the binding buffer: 50 mM Tris-HCl, 10 mM MgCl2, 0.5 mM EDTA (pH 7.4). The radioligand used is [^3H]-LSD at a concentration of 2.7 nM with a final volume of 200 μl. Incubation is initiated by adding 100 μl of the membrane suspension (≈22.9 μg membrane protein), and continues for 60 minutes at a temperature of 37° C. Incubation ends by fast filtration in a Harvester Brandel Cell through glass fibre filters manufactured by Schleicher & Schuell GF 3362 pre-treated with a 0.5% polyethylenimine solution. The filters are washed three times with three milliliters of Tris-HCl 50 mM pH 7.4 buffer. The filters are transferred to vials and to each vial 5 ml of liquid scintillation cocktail Ecoscint H is added. The vials are allowed to reach equilibrium for several hours before being counted in a Wallac Winspectral 1414 scintillation counter. Non-specific binding is determined in the presence of 100 μM serotonin. The tests are performed in triplicate. The inhibition constants (Ki, nM) are calculated by non-linear regression analysis using the program EBDA/LIGAND [Munson and Rodbard, Analytical Biochemistry, 1980, 107, 220].

Setting [1] is: radioligand [3H]-LSD 2.7 nM, 60 min, 37° C.
Setting [2] is: compound concentration 10^−7 M, radioligand [3H]-LSD 2.7 nM, 60 min, 37° C.
Setting [3] is: compound concentration 10^−8 M, radioligand [3H]-LSD 2.7 nM, 60 min, 37° C.

T1 sequence (P50406 whole entry): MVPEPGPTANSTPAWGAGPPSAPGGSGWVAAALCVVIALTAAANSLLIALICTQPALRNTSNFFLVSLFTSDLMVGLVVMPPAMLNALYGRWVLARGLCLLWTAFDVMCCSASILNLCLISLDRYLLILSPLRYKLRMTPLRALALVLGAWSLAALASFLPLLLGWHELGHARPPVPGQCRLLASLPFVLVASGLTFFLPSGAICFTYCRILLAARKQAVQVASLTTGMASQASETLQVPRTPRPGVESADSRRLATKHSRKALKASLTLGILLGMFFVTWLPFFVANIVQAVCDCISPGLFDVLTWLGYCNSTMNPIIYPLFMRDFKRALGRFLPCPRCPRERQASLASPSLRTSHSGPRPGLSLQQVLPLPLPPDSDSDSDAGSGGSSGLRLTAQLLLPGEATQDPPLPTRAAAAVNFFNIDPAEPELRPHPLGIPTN

For orientation: inhibition means the relative decrease from the control value, in per cent. Broadly, the Ki is the equilibrium dissociation constant of an inhibitor or competing ligand from its target. As for `CC1=C(CCN(C)C)c2cc(NS(=O)(=O)c3c(Cl)nc4sccn34)ccc2C1` [Example 19, N-[3-(2-Dimethylaminoethyl)-2-methyl-1H-inden-5-yl]-6-chloroimidazo[2,1-b]thiazole-5-sulfonamide], the inhibition constant Ki worked out at 4.8 nM. Further, under setting [1], the inhibition at 1 µM came to 97%.

With `CC1=C(CCN(C)C)c2cc(NS(=O)(=O)c3sc4ccc(Cl)cc4c3C)ccc2C1` [Example 20, N-[3-(2-Dimethylaminoethyl)-2-methyl-1H-inden-5-yl]-5-chloro-3-methylbenzo[b]thiophene-2-sulfonamide], the inhibition at 0.1 µM under setting [2] stood at 42%. Besides, the inhibition at 0.01 µM under setting [3] was 13%.

Consider `CC1=C(CCN2CCCC2)c2cc(NS(=O)(=O)c3c(Cl)nc4sccn34)ccc2C1` [Example 29, N-[3-(2-Pyrrolidin-1-ylethyl)-2-methyl-1H-inden-5-yl]-6-chloroimidazo[2,1-b]thiazole-5-sulfonamide], for which, under setting [2], the inhibition at 0.1 µM was 82%. The inhibition at 0.01 µM under setting [3] came out at 53%.

For the molecule `CC1=C(CCN2CCCC2)c2cc(NS(=O)(=O)c3ccc(N)cc3)ccc2C1` [Example 32, 4-Amino-N-[3-(2-pyrrolidin-1-ylethyl)-2-methyl-1H-inden-5-yl]benzene sulfonamide], the inhibition at 0.1 µM under setting [2] was 63%. Further, the inhibition at 0.01 µM under setting [3] is 26%.

For the molecule `CC1=C(CCN(C)C)c2cc(NS(=O)(=O)c3ccc4ccccc4c3)ccc2/C1=C\c1ccccc1` [Example 33, N-[1(Z)-Benzylidene-3-(2-dimethylaminoethyl)-2-methyl-1H-inden-5-yl]naphthalene-2-sulfonamide], the Ki worked out at 216 nM.

Turning to `CC1=C(CCN(C)C)c2cc(NS(=O)(=O)c3ccc4ccccc4c3)ccc2C1` [Example 34, N-[3-(2-Dimethylaminoethyl)-2-methyl-1H-inden-5-yl]naphthalene-2-sulfonamide], the Ki is 50.6 nM. For the same molecule, the inhibition at 1 µM under setting [1] was found to be 100%. For the same molecule, the inhibition at 0.1 µM under setting [2] was 71%. The inhibition at 0.01 µM under setting [3] was determined as 18%.

Take `CC1=C(CCN2CCCC2)c2cc(NS(=O)(=O)c3ccc4ccccc4c3)ccc2C1` [Example 35, N-[2-Methyl-3-(2-pyrrolidin-1-ylethyl)-1H-inden-5-yl]naphthalene-2-sulfonamide]: the Ki turned out to be 62.9 nM. Further, under setting [1], the inhibition at 1 µM was 92%.

Turning to `CC1=C(CCN2CCCC2)c2cccc(NS(=O)(=O)c3ccc4ccccc4c3)c2C1` [Example 36, N-[2-Methyl-1-(2-pyrrolidin-1-ylethyl)-3H-inden-4-yl]naphthalene-2-sulfonamide], the Ki amounted to 157 nM. For the same molecule, the inhibition at 1 µM under setting [1] was found to be 72%.

In the case of `O=S(=O)(Nc1ccc2c(c1)C(CCN1CCCC1)=CC2)c1ccc2ccccc2c1` [Example 37, N-[3-(2-Pyrrolidin-1-ylethyl)-1H-inden-5-yl]naphthalene-2-sulfonamide], the Ki came out at 46.3 nM. Besides, the inhibition at 1 µM under setting [1] was 92%.

Turning to `CC1=C(CCN2CCCC2)c2cc(NS(=O)(=O)c3sc4ccc(Cl)cc4c3C)ccc2C1` [Example 38, N-[2-Methyl-3-(2-pyrrolidin-1-ylethyl)-1H-inden-5-yl]-5-chloro-3-methylbenzo[b]thiophene-2-sulfonamide], the Ki is 20.2 nM. The inhibition at 1 µM under setting [1] amounted to 100%.

In the case of `CC1=C(CCN(C)C)c2cc(S(=O)(=O)Nc3cccc4ccccc34)ccc2C1` [Example 39, N-(Naphthalene-1-yl)-3-(2-dimethylaminoethyl)-2-methyl-1H-indene-5-sulfonamide], under setting [2], the inhibition at 0.1 µM worked out at 51%. In addition, the inhibition at 0.01 µM under setting [3] worked out at 25%.

For the molecule `CC1=C(CCO)c2cc(NS(=O)(=O)c3ccc4ccccc4c3)ccc2C1` [Example 40, N-[3-(2-Hydroxyethyl)-2-methyl-1H-inden-5-yl]naphthalene-2-sulfonamide], the inhibition at 1 µM under setting [1] was determined as 45%. Also, the inhibition at 0.1 µM under setting [2] was found to be 16%. Also, the inhibition at 0.01 µM under setting [3] amounted to 8%.

For the molecule `CN(C)CCC1=CC(C)(C)c2ccc(NS(=O)(=O)c3c(Cl)nc4sccn34)cc21` [Example 41, 6-Chloro-N-{3-[2-(dimethylamino)ethyl]-1,1-dimethyl-1H-inden-5-yl}imidazo[2,1-b] [1,3]thiazole-5-sulfonamide], the inhibition at 0.1 µM under setting [2] worked out at 24.5%. Also, under setting [3], the inhibition at 0.01 µM is 9.4%.

Take `Cc1c(S(=O)(=O)Nc2ccc3c(c2)C(CCN(C)C)=CC3(C)C)sc2ccc(Cl)cc12` [Example 42, 5-Chloro-N-{3-[2-(dimethylamino)ethyl]-1,1-dimethyl-1H-inden-5-yl}-3-methylbenzo[b]thiophene-2-sulfonamide]: under setting [2], the inhibition at 0.1 µM amounted to 2.3%. The inhibition at 0.01 µM under setting [3] is -7.5%.

In the case of `CC1=C(CCN(C)C)c2cc(NS(=O)(=O)c3cccc4ccccc34)ccc2C1` [Example 43, N-{3-[2-(Dimethylamino)ethyl]-2-methyl-1H-inden-5-yl}naphthalene-1-sulfonamide], the inhibition at 0.1 µM under setting [2] turned out to be 78.4%. For the same molecule, the inhibition at 0.01 µM under setting [3] came out at 32%.

As for `CC1=C(CCN(C)C)c2cc(NS(=O)(=O)c3csc4ccccc34)ccc2C1` [Example 44, N-{3-[2-(Dimethylamino)ethyl]-2-methyl-1H-inden-5-yl}-1-benzothiophene-3-sulfonamide], the inhibition at 0.1 µM under setting [2] was 88.3%. The inhibition at 0.01 µM under setting [3] worked out at 53%.

Take `CC1=C(C2CCN(C)C2)c2cc(NS(=O)(=O)c3c(Cl)nc4sccn34)ccc2C1` (stereo not shown) [Example 45, 6-Chloro-N-[2-methyl-3-(1-methylpyrrolidin-3-yl)-1H-inden-5-yl]imidazo[2,1-b] [1,3]thiazole-5-sulfonamide]: the inhibition at 0.1 µM under setting [2] was 5.4%. In addition, the inhibition at 0.01 µM under setting [3] worked out at 7.4%.

As to `CC1=C(C2CCCN(C)C2)c2cc(NS(=O)(=O)c3c(Cl)nc4sccn34)ccc2C1` (stereo not shown) [Example 46, 6-Chloro-N-[2-methyl-3-(1-methylpiperidin-3-yl)-1H-inden-5-yl]imidazo[2,1-b] [1,3]thiazole-5-sulfonamide], the inhibition at 0.1 µM under setting [2] came to 85.8%. For the same molecule, the inhibition at 0.01 µM under setting [3] worked out at 77.6%.

Consider `CC1=C(CCN(C)C)c2cc(Cl)ccc2C1` [Example 47, 2-(5-Chloro-2-methyl-1H-inden-3-yl)-N,N-dimethylethanamine], for which the inhibition at 0.1 µM was 8.9% and the inhibition at 0.01 µM stood at 16.2%.
